Data set [1] relates to production of β-amyloid protein (Aβ) by E35 cells (human glioma H4 cells transfected with APP751 gene). The data set is described as follows: Screening system using cells: inhibition of production/secretion of β-amyloid protein (Aβ sandwich ELISA of culture supernatant). It counts as cell-based. As to conditions: 24 hours with compound, Aβ in supernatant by ELISA, read-out: Activity (EC50, concentration at which production of Aβ is inhibited by 50%). The protocol: Inhibitory activity of compounds against production of β-amyloid protein was measured by quantitative determination of the amount of β-amyloid protein (Aβ) secreted into the culture medium by sandwich enzyme-linked immunosorbent assay (ELISA) method, using E35 cells prepared by transfecting APP751 gene, which is a human wild type β-amyloid protein precursor protein gene, into human glioma cells (H4 cells).
That is, E35 cells were inoculated into a 96-well plate followed by cultivation in an incubator equilibrated with 5% carbon dioxide at 37° C., using Dulbecco's Modified Eagle's Medium supplemented with inactivated 10% fetal bovine serum as the medium. Test compounds dissolved in DMSO solution were added 24 hours after inoculation. Test compounds in DMSO solution were prepared to have a 2000-fold concentration of the final concentration, so that the DMSO concentration in the medium becomes 0.05%. After further cultivation for 24 hours, supernatant was collected, and was added to a 96-well plate for ELISA fixed with monoclonal antibody 25-1 against Aβ. Incubation was carried out at 4° C. for 16-20 hours. The plate was washed with phosphate buffer (pH 7.4), followed by addition of biotinylated monoclonal antibody MA32-40 against Aβ, and the plate was allowed to stand at 4° C. for 2 hours. After the plate was washed with phosphate buffer again, streptavidin conjugated alkaline phosphatase was added. Biotin was allowed to conjugate with streptavidin, and then the plate was washed with phosphate buffer. Blue Phos (KPL Inc.) was added to the plate, and then after incubation for an appropriate period of time, absorbance was measured for each of the wells. The amount of Aβ contained in the supernatant of conditioned medium was obtained from a calibration curve which was prepared separately. The concentration at which production of Aβ is inhibited by 50% (EC50), when compared with the control cells without the addition of the compound, was calculated. Here, 25-1 antibody and MA32-40 antibody used in ELISA are mouse monoclonal antibodies derived from hybridoma cell clone cell lines, which specifically recognize each antigen which was prepared and selected in accordance with a standard method by using Aβ25-35 and Aβ1-8 as antigens, respectively.
Results for the evaluation made by the aforementioned assay with respect to compound (I) of the present invention are shown in Table 1. Notation of ++++ is provided when EC50 is 5 nM or lower, +++ when 5-50 nM, and ++ when 50-500 nM.
Background: ELISA stands for enzyme-linked immunosorbent assay.

Broadly, the melting point is the temperature, or range, at which the solid turns liquid. `Cc1cc(C(=O)NCO)ncc1C(c1c(F)ccc(F)c1F)S(=O)(=O)CCC(C)(F)F` (stereo not drawn) yielded a melting point of 161 to 161.5 °C.
As for `CCCS(=O)(=O)C(c1cnc(C(N)=O)cc1C)c1c(F)ccc(F)c1F` (stereo not drawn), the melting point is 202 to 204 °C.
In turn, `Cc1cc(C(N)=O)ncc1C(c1c(F)ccc(F)c1F)S(=O)(=O)CCC(C)(C)C` (stereo not drawn) yielded a melting point of 143 to 144 °C.
On the same count and under the same terms, the figure for `Cc1cc(C(N)=O)ncc1C(c1c(F)ccc(F)c1F)S(=O)(=O)CC1CC1` (stereo not drawn) is 222 to 223 °C; for `Cc1cc(C(N)=O)ncc1C(c1c(F)ccc(F)c1F)S(=O)(=O)CC(C)C` (stereo not drawn) it is 240 to 241 °C.
On the same count and under the same terms, for `Cc1cc(C(N)=O)ncc1C(c1c(F)ccc(F)c1F)S(=O)(=O)CC1CCC1` (stereo not drawn) the value was 214 to 215 °C.
On to `Cc1cc(C(=O)NCO)ncc1C(c1c(F)ccc(F)c1F)S(=O)(=O)CCC(F)(F)C(F)(F)F` (stereo not drawn), for which the melting point fell in the range of 126 to 128 °C.
In turn, `Cc1cc(C(N)=O)ncc1C(SCCC=C(F)F)c1c(F)ccc(F)c1F` (stereo not drawn) yielded a melting point of 97 to 98 °C.
The same measure, in the same setting: for `Cc1cc(C(N)=O)ncc1C(c1c(F)ccc(F)c1F)S(=O)(=O)CCC(F)=C(F)F` (stereo not drawn) the value was 170 to 172 °C.
Still for that read-out and setting: the figure for `Cc1cc(C(N)=O)ncc1C(c1c(F)ccc(F)c1F)S(=O)(=O)CC(F)(F)C(F)F` (stereo not drawn) is 160 to 161 °C.
`Cc1cc(C(N)=O)ncc1C(c1c(F)ccc(F)c1F)S(=O)(=O)CC(C(F)(F)F)C(F)(F)F` (stereo not drawn) displayed a melting point of 194 to 196 °C.
Same read-out and setting: the figure for `Cc1cc(C(N)=O)ncc1C(c1c(F)ccc(F)c1F)S(=O)(=O)CCC(F)F` (stereo not drawn) is 191.5 to 192 °C; for `Cc1cc(C(N)=O)ncc1C(c1c(F)ccc(F)c1F)S(=O)(=O)CC1CC(F)(F)C1` (stereo not drawn) it is 205 to 207 °C; for `Cc1cc(C(=O)O)ncc1C(c1c(F)ccc(F)c1F)S(=O)(=O)CCC(F)(F)F` (stereo not drawn) it is 85 to 87 °C.
On the same count and under the same terms, the figure for `Cc1cc(C(=O)N(C)C)ncc1C(c1c(F)ccc(F)c1F)S(=O)(=O)CCC(F)(F)F` (stereo not drawn) is 203 to 204 °C.
For `Cc1cc(C(=O)NCCO)ncc1C(c1c(F)ccc(F)c1F)S(=O)(=O)CCC(F)(F)F` (stereo not drawn), the melting point was 146 to 147 °C.
The same measure, in the same setting: for `Cc1cc(C(N)=O)ncc1C(c1c(F)ccc(F)c1F)S(=O)(=O)CCCC(F)(F)F` (stereo not drawn) the value was 201 to 203 °C.
`Cc1cc(C(N)=O)ncc1C(c1c(F)ccc(F)c1F)S(=O)(=O)CCCF` (stereo not drawn) came in with a melting point of 194 to 196 °C.
In turn, `Cc1cc(C(N)=O)ncc1C(c1c(F)ccc(F)c1F)S(=O)(=O)CCC(F)(F)F` (stereo not drawn) [Example 3, 4-Methyl-5-[(2,3,6-trifluorophenyl)[(3,3,3-trifluoropropyl)sulfonyl]methyl]pyridine-2-carboxamide] displayed a melting point of 190 to 191 °C. Also, the EC50 in data set [1] fell in the range of 50 to 500 nM.
In turn, `Cc1cc(C(=O)NCO)ncc1C(c1c(F)ccc(F)c1F)S(=O)(=O)CCC(F)(F)F` (stereo not drawn) [Example 4, N-(Hydroxymethyl)-4-methyl-5-[(2,3,6-trifluorophenyl)[(3,3,3-trifluoropropyl)sulfonyl]methyl]pyridine-2-carboxamide] showed a melting point of 146 to 148 °C. In data set [1], the EC50 lay in the range of 5 to 50 nM.
Consider `Cc1cc(C(N)=O)ncc1C(c1c(F)ccc(F)c1F)S(=O)(=O)CCC(C)(F)F` (stereo not drawn) [Example 10, 5-[[(3,3-Difluorobutyl)sulfonyl](2,3,6-trifluorophenyl)methyl]-4-methylpyridine-2-carboxamide], for which the melting point was 165 to 166 °C. In data set [1], the EC50 is 50 to 500 nM.
Molecule `CCCCS(=O)(=O)C(c1cnc(C(N)=O)cc1C)c1c(F)ccc(F)c1F` (stereo not drawn) [Example 15, 5-[(Butylsulfonyl)(2,3,6-trifluorophyenyl)methyl]-4-methylpyridine-2-carboxamide] returned a melting point of 203 to 204 °C. The EC50 in data set [1] lay within 50 to 500 nM.
The corresponding values for `Cc1cc(C(N)=O)ncc1C(c1c(F)ccc(F)c1F)S(=O)(=O)CCC(Cl)(Cl)Cl` (stereo not drawn) [Example 18, 4-Methyl-5-[[(3,3,3-trichloropropyl)sulfonyl](2,3,6-trifluorophenyl)methyl]pyridine-2-carboxamide] are 173 to 175 °C and 50 to 500 nM.
The corresponding values for `Cc1cc(C(N)=O)ncc1C(c1c(F)ccc(F)c1F)S(=O)(=O)CCC(F)(F)C(F)(F)F` (stereo not drawn) [Example 19, 4-Methyl-5-[[(3,3,4,4,4-pentafluorobutyl)sulfonyl](2,3,6-trifluorophenyl)methyl]pyridine-2-carboxamide] are 155 to 156 °C and 5 to 50 nM.
The molecule `Cc1cc(C(N)=O)ncc1C(c1c(F)ccc(F)c1F)S(=O)(=O)CCCCl` (stereo not drawn) [Example 30, 5-[[(3-Chloropropyl)sulfonyl](2,3,6-trifluorophenyl)methyl]-4-methylpyridine-2-carboxamide] returned a melting point of 197 to 199 °C. Further, the EC50 in data set [1] was 50 to 500 nM.
`Cc1cc(C(N)=O)ncc1C(c1c(F)ccc(F)c1F)S(=O)(=O)CCC(F)(F)Cl` (stereo not drawn) [Example 34, 5-[[(3-Chloro-3,3-difluoropropyl)sulfonyl](2,3,6-trifluorophenyl)methyl]-4-methylpyridine-2-carboxamide] showed a melting point of 181 to 183 °C. Further, the EC50 in data set [1] was 5 to 50 nM.
The corresponding values for `Cc1cc(C(=O)NCO)ncc1C(c1c(F)ccc(F)c1F)S(=O)(=O)CCC(F)(F)Cl` (stereo not drawn) [Example 35, 5-[[(3-Chloro-3,3-difluoropropyl)sulfonyl](2,3,6-trifluorophenyl)methyl]-N-(hydroxymethyl)-4-methylpyridine-2-carboxamide] are 150 to 152 °C and 5 to 50 nM.
Molecule `Cc1cc(C(N)=O)ncc1C(c1c(F)ccc(F)c1F)S(=O)(=O)CC=C(F)F` (stereo not drawn) [Example 37, 5-[[(3,3-Difluoroprop-2-en-1-yl)sulfonyl](2,3,6-trifluorophenyl)methyl]-4-methylpyridine-2-carboxamide] gave a melting point of 171 to 172 °C. The EC50 in data set [1] lay within 50 to 500 nM.
Consider `NC(=O)c1cc(C(c2c(F)ccc(F)c2F)S(=O)(=O)CCC(F)(F)F)c(Cl)cn1` (stereo not drawn) [Example 45, 5-Chloro-4-[(2,3,6-trifluorophenyl)[(3,3,3-trifluoropropyl)sulfonyl]methyl]pyridine-2-carboxamide], for which the melting point lay within 237 to 239 °C. In data set [1], the EC50 was 50 to 500 nM.
For `Nc1cc(C(c2c(F)ccc(F)c2F)S(=O)(=O)CCC(F)(F)F)c(Cl)cn1` (stereo not drawn) [Example 48, 5-Chloro-4-[(2,3,6-trifluorophenyl)[(3,3,3-trifluoropropyl)sulfonyl]methyl]pyridin-2-amine], in that order: 155 to 159 °C and 5 to 50 nM.
As for `O=c1cc(O)nc2cc(C(c3c(F)ccc(F)c3F)S(=O)(=O)CCC(F)(F)F)c(Cl)cn12` (stereo not drawn) [Example 49, 7-Chloro-2-hydroxy-8-[(2,3,6-trifluorophenyl)[(3,3,3-trifluoropropyl)sulfonyl]methyl]-4H-pyrido[1,2-a]pyrimidin-4-one], the melting point is 264 °C (dec.). For the same molecule, in data set [1], the EC50 is 5 to 50 nM.
`Nc1cc(=O)n2cc(Cl)c(C(c3c(F)ccc(F)c3F)S(=O)(=O)CCC(F)(F)F)cc2n1` (stereo not drawn) [Example 51, 2-Amino-7-chloro-8-[(2,3,6-trifluorophenyl)[(3,3,3-trifluoropropyl)sulfonyl]methyl]-4H-pyrido[1,2-a]pyrimidin-4-one]: the melting point is 247 °C (dec.). Further, in data set [1], the EC50 was ≤ 5 nM.
`O=c1[nH]nc2cc(C(c3c(F)ccc(F)c3F)S(=O)(=O)CCC(F)(F)F)c(Cl)cn12` (stereo not drawn) [Example 54, 6-Chloro-7-[(2,3,6-trifluorophenyl)[(3,3,3-trifluoropropyl)sulfonyl]methyl][1,2,4]triazolo[4,3-a]pyridin-3(2H)-one] came in with a melting point of 209 to 211 °C. In data set [1], the EC50 was 5 to 50 nM.

(Values after patent US20100168136A1, “ALKYLSULFONE DERIVATIVES” (DAIICHI SANKYO COMPANY, LIMITED, priority 2007, published 2010).)
